From article PMC12444516, “Broad Substrate Specificity and High Catalytic Activity of Sphingomonadaceae PhoK-Type Phosphatases Implicated in Flame-Retardant Degradation” (ACS Omega, 2025)
Where two headings read alike, the source gives them in different places.

Key:
SmSRS2-PhoK [1] = system: T1, SmSRS2-PhoK; assay: UV/vis, phenol release at […] nm, initial rates; format: biochemical, Sphingomonas sp. SRS2; conditions: 50 mM Ches pH 9.0; read-out: phenyl phosphate (2) / K m
T1 construct: predicted Sec/SPI signal peptide; from a smaller PhoK cluster outside the main Sphingomonadaceae cluster

SmTDK1-PhoK [2] = conditions: read-out: phenyl phosphate (2) / K m
Sb-PhoK [3] = conditions: read-out: phenyl phosphate (2) / K m
St-PhoK [4] = conditions: read-out: phenyl phosphate (2) / K m
No-PhoK [5] = conditions: read-out: phenyl phosphate (2) / K m
Sb-PhoK [6] = system: T2, Sb-PhoK; format: biochemical, Sphingobium sp. TCM1; conditions: read-out: p-nitrophenyl phosphate (1) / K m
T2 construct: predicted Sec/SPI signal peptide; ~2 Zn per protein

St-PhoK [7] = system: T3, St-PhoK; format: biochemical, Sphingopyxis terrae; conditions: read-out: p-nitrophenyl phosphate (1) / K m
T3 construct: predicted Sec/SPI signal peptide; also printed Sp-PhoK

SmTDK1-PhoK [8] = system: T4, SmTDK1-PhoK; format: biochemical, Sphingomonas sp. TDK1; conditions: read-out: p-nitrophenyl phosphate (1) / K m
T4 construct: synthetic codon-optimised gene in pET29a with native stop codon, untagged; E. coli BL21(DE3); ammonium sulfate, Resource Q flow-through, S200; predicted Sec/SPI signal peptide

No-PhoK [9] = system: T5, No-PhoK; format: biochemical, Novosphingobium sp. EMRT-2; conditions: read-out: p-nitrophenyl phosphate (1) / K m
T5 construct: predicted Sec/SPI signal peptide

SmSRS2-PhoK [10] = system: T1, SmSRS2-PhoK; assay: UV/vis, p-nitrophenol release at […] nm, initial rates; format: biochemical, Sphingomonas sp. SRS2; conditions: 50 mM Ches pH 9.0; read-out: p-nitrophenyl phosphate (1) / K m
purified protein [11] = substrate: O=P(O)(O)Oc1ccccc1; assay: purified protein; format: biochemical, Sphingomonas sp.; conditions: 50 mM Ches pH 9.0
purified protein [12] = substrate: O=[N+]([O-])c1ccc(OP(=O)(O)O)cc1; assay: purified protein; conditions: 50 mM Ches pH 9.0

Molecule: O=P(O)(O)Oc1ccccc1 [compound 2, phenyl phosphate]
- Km (SmSRS2-PhoK [1]): 104 ± 5 µM
- Km (SmTDK1-PhoK [2]): 600 ± 20 µM
- Km (Sb-PhoK [3]): 650 ± 30 µM
- Km (St-PhoK [4]): 81 ± 5 µM
- Km (No-PhoK [5]): 300 ± 20 µM

Molecule: O=[N+]([O-])c1ccc(OP(=O)(O)O)cc1 [compound 1, p-nitrophenyl phosphate]
- Km (Sb-PhoK [6]): 69 ± 2 µM
- Km (St-PhoK [7]): 78 ± 3 µM
- Km (SmTDK1-PhoK [8]): 450 ± 10 µM
- Km (No-PhoK [9]): 153 ± 5 µM
- Km (SmSRS2-PhoK [10]): 88 ± 4 µM

B1: Sm-PhoK (Sphingomonas sp.) (protein)
chain: QSPAPAAAPAPAARSIAATPPKLIVAISVDQFSADLFSEYRQYYTGGLKRLTSEGAVFPRGYQSHAATETCPGHSTILTGSRPSRTGIIANNWFDLDAKREDKNLYCAEDESQPGSSSDKYEASPLHLKVPTLGGRMKAANPATRVVSVAGKDRAAIMMGGATADQVWWLGGPQGYVSYKGVAPTPLVTQVNQAFAQRLAQPNPGFELPAQCVSKDFPVQAGNRTVGTGRFARDAGDYKGFRISPEQDAMTLAFAAAAIENMQLGKQAQTDIISIGLSATDYVGHTFGTEGTESCIQVDRLDTELGAFFDKLDKDGIDYVVVLTADHGGHDLPERHRMNAMPMEQRVDMALTPKALNATIAEKAGLPGKKVIWSDGPSGDIYYDKGLTAAQRARVETEALKYLRAHPQVQTVFTKAEIAATPSPSGPPESWSLIQEARASFYPSRSGDLLLLLKPRVMSIPEQAVMGSVATHGSPWDTDRRVPILFWRKGMQHFEQPLGVETVDILPSLAALIKLPVPKDQIDGRCLDLVAGKDDSCAGQ
notes: predicted Sec/SPI signal peptide; binuclear Zn site, nucleophile T89
- Km (purified protein [11]): 600 ± 20 µM
- kcat (purified protein [11]): 1100 ± 10 s⁻¹
- kcat/Km (purified protein [11]): 1.84e+06 ± 60000 M⁻¹ s⁻¹
- Km (purified protein [12]): 174 ± 4 µM
